Assay results taken from publication PMC9783183, “Substrate Recognition Properties from an Intermediate Structural State of the UreA Transporter” (International Journal of Molecular Sciences, 2022).
Like-named read-outs stand apart in the source and are kept apart here.

Legend:
UreA wt = target: T1, UreA wt (Aspergillus nidulans, UniProt Q5BGB2); experiment: [14C]-urea uptake in germinating conidiospores, wt UreA; assay type: cell-based; details: allele wt; for Ki: inhibition of [14C]-urea uptake, Ki from IC50
T1 sequence (Q5BGB2 1-693): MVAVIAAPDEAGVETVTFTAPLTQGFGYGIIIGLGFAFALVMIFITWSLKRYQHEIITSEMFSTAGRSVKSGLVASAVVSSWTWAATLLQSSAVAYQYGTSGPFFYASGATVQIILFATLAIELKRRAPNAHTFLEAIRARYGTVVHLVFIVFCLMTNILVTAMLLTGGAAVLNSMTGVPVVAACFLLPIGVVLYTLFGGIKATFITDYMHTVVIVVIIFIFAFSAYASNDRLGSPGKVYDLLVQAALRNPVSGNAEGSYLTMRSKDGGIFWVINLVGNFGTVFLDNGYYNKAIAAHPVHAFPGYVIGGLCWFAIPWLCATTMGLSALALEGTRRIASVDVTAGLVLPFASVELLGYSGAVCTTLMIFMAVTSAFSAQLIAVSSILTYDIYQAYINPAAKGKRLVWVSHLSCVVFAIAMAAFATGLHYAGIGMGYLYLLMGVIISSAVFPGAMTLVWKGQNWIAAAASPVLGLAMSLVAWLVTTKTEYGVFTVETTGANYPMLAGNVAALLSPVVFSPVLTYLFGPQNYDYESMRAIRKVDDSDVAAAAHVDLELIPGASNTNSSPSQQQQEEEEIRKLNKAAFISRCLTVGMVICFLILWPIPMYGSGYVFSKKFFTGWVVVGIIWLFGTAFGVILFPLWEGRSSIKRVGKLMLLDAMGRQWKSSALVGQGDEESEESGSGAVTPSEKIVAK
Experimental: (§1) Radiolabelled [^14C]-urea (55.0 mCi mmol^−1) was purchased from Moravek Biochemicals, Brea, CA, USA. [^14C]-urea uptake assays were performed in A. nidulans germinating conidiospores. Initial velocities were measured after 2 min of incubation at 37 °C with a [^14C]-urea concentration of 1.0 μΜ, and are expressed as % of the wt value, in pmoles min^−1/10^7 conidiospores. Apparent Km/i values were obtained directly by performing and analyzing [^14C]-urea uptakes (Prism 3.02: Graph Pad Software, Inc., San Diego, CA, USA), from IC50 values in the presence of various concentrations (0.5–3000 μM) of non-labelled substrates, as previously described. […] The Ki values are then calculated from IC50 values, based on the equation: Ki = IC50/[1 + (S/Km)] […] Transport assays were carried out in at least three independent experiments, in triplicates for each concentration or time point. Background uptake values were corrected by subtracting values measured in the deleted mutants (UreAΔ).

UreA W82Y = target: T2, UreA W82Y (Aspergillus nidulans, UniProt Q5BGB2, W82Y); experiment: [14C]-urea uptake in germinating conidiospores, UreA W82Y mutant; details: for Vo (%) initial uptake rate: allele W82Y, % of wt, [14C]-urea 1.0 μM, 2 min, 37 °C
T2 sequence (Q5BGB2 1-693 W82Y): T1 sequence (Q5BGB2 1-693)
Experimental: as §1

UreA W84A = target: T3, UreA W84A (Aspergillus nidulans, UniProt Q5BGB2, W84A); experiment: [14C]-urea uptake in germinating conidiospores, UreA W84A mutant
T3 sequence (Q5BGB2 1-693 W84A): T1 sequence (Q5BGB2 1-693)
Experimental: as §1

UreA W84F = target: T4, UreA W84F (Aspergillus nidulans, UniProt Q5BGB2, W84F); experiment: [14C]-urea uptake in germinating conidiospores, UreA W84F mutant
T4 sequence (Q5BGB2 1-693 W84F): T1 sequence (Q5BGB2 1-693)
Experimental: as §1

UreA W84Y = target: T5, UreA W84Y (Aspergillus nidulans, UniProt Q5BGB2, W84Y); experiment: [14C]-urea uptake in germinating conidiospores, UreA W84Y mutant
T5 sequence (Q5BGB2 1-693 W84Y): T1 sequence (Q5BGB2 1-693)
Experimental: as §1

UreA N279A = target: T6, UreA N279A (Aspergillus nidulans, UniProt Q5BGB2, N279A); experiment: [14C]-urea uptake in germinating conidiospores, UreA N279A mutant
T6 sequence (Q5BGB2 1-693 N279A): T1 sequence (Q5BGB2 1-693)
Experimental: as §1

UreA N279Q = target: T7, UreA N279Q (Aspergillus nidulans, UniProt Q5BGB2, N279Q); experiment: [14C]-urea uptake in germinating conidiospores, UreA N279Q mutant; details: for Vo (%) initial uptake rate: allele N279Q, % of wt, [14C]-urea 1.0 μM, 2 min, 37 °C
T7 sequence (Q5BGB2 1-693 N279Q): T1 sequence (Q5BGB2 1-693)
Experimental: as §1

UreA T282A = target: T8, UreA T282A (Aspergillus nidulans, UniProt Q5BGB2, T282A); experiment: [14C]-urea uptake in germinating conidiospores, UreA T282A mutant; details: for Vo (%) initial uptake rate: allele T282A, % of wt, [14C]-urea 1.0 μM, 2 min, 37 °C
T8 sequence (Q5BGB2 1-693 T282A): T1 sequence (Q5BGB2 1-693)
Experimental: as §1

UreA T282S = target: T9, UreA T282S (Aspergillus nidulans, UniProt Q5BGB2, T282S); experiment: [14C]-urea uptake in germinating conidiospores, UreA T282S mutant; details: for fold drop in affinity: allele T282S vs wt; for Vo (%) initial uptake rate: allele T282S, % of wt, [14C]-urea 1.0 μM, 2 min, 37 °C
T9 sequence (Q5BGB2 1-693 T282S): T1 sequence (Q5BGB2 1-693)
Experimental: as §1

UreA W82F = details: cited from earlier work; for affinity relative to wt (in words): allele W82F vs wt, ref [16]
NC(N)=O = experiment: cells, lysate or membranes; details: 37.0 °C
Experimental: [^14C]-urea uptake assays were performed in A. nidulans germinating conidiospores. Initial velocities were measured after 2 min of incubation at 37 °C with a [^14C]-urea concentration of 1.0 μΜ, and are expressed as % of the wt value, in pmoles min^−1/10^7 conidiospores. Apparent Km/i values were obtained directly by performing and analyzing [^14C]-urea uptakes (Prism 3.02: Graph Pad Software, Inc., San Diego, CA, USA), from IC50 values in the presence of various concentrations (0.5–3000 μM) of non-labelled substrates, as previously described [4, 16, 58]. […] The Ki values are then calculated from IC50 values, based on the equation: Ki = IC50/[1 + (S/Km)] […] Transport assays were carried out in at least three independent experiments, in triplicates for each concentration or time point. Background uptake values were corrected by subtracting values measured in the deleted mutants (UreAΔ). Standard deviation was <20%.

## CC(N)=O [Acetamide, acetamide]
UreA wt; read-out: Acetamide Ki
  Ki: 237 ± 14 µM
UreA W82Y
  Ki: 101 ± 16 µM
UreA W84A
  Ki: 489 ± 39 µM
UreA W84F
  Ki: 524 ± 42 µM
UreA W84Y
  Ki: > 1000 µM
UreA N279A
  Ki: 51 ± 5 µM
UreA N279A; allele N279A vs wt
  Ki fold lower as compared to the wt: ≈ 4.6 fold
UreA N279Q
  Ki: 87 ± 9 µM
UreA N279Q; allele N279Q vs wt
  Ki fold lower as compared to the wt: ≈ 2.7 fold
UreA T282A
  Ki: 361 ± 85 µM
UreA T282A; allele T282A vs wt
  fold decrease in affinity: 1.6 fold
UreA T282S
  Ki: 290 ± 12 µM
UreA W82F
  affinity relative to wt (in words): augmented
UreA W82F; allele W82F, ref Sanguinetti et al. (2014) [8], read-out: Acetamide Ki
  Ki: 198 ± 12 µM

## NC(N)=S [Thiourea, 2-thiourea]
UreA wt; read-out: Thiourea Ki
  Ki: 528 ± 42 µM
UreA W82Y
  Ki: > 1000 µM
UreA W84A
  Ki: > 2000 µM
UreA W84F
  Ki: > 2000 µM
UreA W84Y
  Ki: > 2000 µM
UreA N279A
  Ki: > 1000 µM
UreA N279Q
  Ki: 813 ± 59 µM
UreA N279Q; allele N279Q vs wt
  affinity fold lower than that of the wt: 1.5 fold
UreA T282A
  Ki: > 1000 µM
UreA T282A; allele T282A vs wt
  fold decrease in affinity: 2 fold
UreA T282S
  Ki: > 1000 µM
  fold drop in affinity: > 2 fold
UreA W82F
  affinity relative to wt (in words): augmented
UreA W82F; allele W82F, ref Sanguinetti et al. (2014) [8], read-out: Thiourea Ki
  Ki: 447 ± 24 µM

## NC(N)=O [Urea, urea]
UreA wt; % of wt, [14C]-urea 1.0 μM, 2 min, 37 °C
  Vo (%) initial uptake rate: 100%
UreA W82Y; allele W82Y vs wt
  drop in urea affinity: ≈ 50%
UreA W82Y
  Vo (%) initial uptake rate: 25 ± 2%
UreA W82Y; listed as urea
  Vo (%) initial uptake rate: ≈ 25%
UreA W84A; allele W84A, % of wt, [14C]-urea 1.0 μM, 2 min, 37 °C
  Vo (%) initial uptake rate: 20 ± 2%
UreA W84F; allele W84F, % of wt, [14C]-urea 1.0 μM, 2 min, 37 °C
  Vo (%) initial uptake rate: 15 ± 2%
UreA W84Y; allele W84Y, % of wt, [14C]-urea 1.0 μM, 2 min, 37 °C
  Vo (%) initial uptake rate: 46 ± 4%
UreA N279A; allele N279A, % of wt, [14C]-urea 1.0 μM, 2 min, 37 °C
  Vo (%) initial uptake rate: 100 ± 5%
UreA N279Q; allele N279Q vs wt
  affinity fold lower than that of the wt: 3.5 fold
UreA N279Q
  Vo (%) initial uptake rate: 70 ± 3%
UreA N279Q; listed as urea
  Vo (%) initial uptake rate: ≈ 70%
UreA T282A; allele T282A vs wt
  Km fold lower than that of the wt: 3 fold
UreA T282A
  Vo (%) initial uptake rate: 14 ± 2%
UreA T282A; listed as urea
  Vo (%) initial uptake rate: 14%
UreA T282S
  fold drop in affinity: 5 fold
  Vo (%) initial uptake rate: 65 ± 3%
UreA T282S; listed as urea
  Vo (%) initial uptake rate: ≈ 65%
UreA W82F
  affinity relative to wt (in words): unchanged
UreA W82F; allele W82F, % of wt, ref Sanguinetti et al. (2014) [8]
  Vo (%) initial uptake rate: 50 ± 8%
UreA W82F; allele W82F, ref Sanguinetti et al. (2014) [8]
  Km: 23 ± 5 µM

## N=C(N)N [guanidine]
UreA W82F
  affinity relative to wt (in words): augmented

## UreA N279A (Aspergillus nidulans FGSC A4; N279A)
NC(N)=O; other: allele N279A
  Km: 30 ± 3 µM

## UreA N279Q (Aspergillus nidulans FGSC A4; N279Q)
NC(N)=O; other: allele N279Q
  Km: 91 ± 6 µM

## UreA T282A (Aspergillus nidulans FGSC A4; T282A)
NC(N)=O; other: allele T282A
  Km: 80 ± 27 µM

## UreA T282S (Aspergillus nidulans FGSC A4; T282S)
NC(N)=O; other: allele T282S
  Km: 130 ± 22 µM

## UreA W82Y (Aspergillus nidulans FGSC A4; W82Y)
NC(N)=O; other: allele W82Y
  Km: 42 ± 5 µM

## UreA W84A (Aspergillus nidulans FGSC A4; W84A)
NC(N)=O; other: allele W84A
  Km: 193 ± 12 µM

## UreA W84F (Aspergillus nidulans FGSC A4; W84F)
NC(N)=O; other: allele W84F
  Km: 96 ± 13 µM

## UreA W84Y (Aspergillus nidulans FGSC A4; W84Y)
NC(N)=O; other: allele W84Y
  Km: 159 ± 11 µM
